Experimental data from the supplement of paper PMC10307832.

Assays:
Assay in all cases: relative viability (nuclei count vs DMSO), 5 days (fraction); higher = more cells survive
NCI-H520 = tested on: NCI-H520
Summary of the method: (§1)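 Lung cancer cell lines, seeded in 1536-well plates, were treated the following day by pin tool with a single drug or with five library-drug doses (not always all listed) in √10 steps on top of a fixed anchor-drug dose. Cells were fixed and nuclei stained in one step after 5 days, and nuclei were counted. Relative viability is the nuclei count for treated wells divided by that for vehicle wells, reported as medians of duplicate plates.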

PC-3 [JPC-3] = tested on: PC-3 [JPC-3]
Summary of the method: as §1

NCI-H838 = tested on: NCI-H838
Summary of the method: as §1

NCI-H650 = tested on: NCI-H650
Summary of the method: as §1

NCI-H1944 = tested on: NCI-H1944
Summary of the method: as §1

NCI-H1651 = tested on: NCI-H1651
Summary of the method: as §1

A549 = tested on: A549
Summary of the method: as §1

NCI-H1623 = tested on: NCI-H1623
Summary of the method: as §1

RERF-LC-KJ = tested on: RERF-LC-KJ
Summary of the method: as §1

## CC(=O)O[C@@]12CO[C@@H]1C[C@H](O)[C@@]1(C)C(=O)[C@H](O)C3=C(C)[C@@H](OC(=O)[C@H](O)[C@@H](NC(=O)OC(C)(C)C)c4ccccc4)C[C@@](O)([C@@H](OC(=O)c4ccccc4)[C@H]21)C3(C)C [Docetaxel] + N=C(N)NC(=N)NCCc1ccccc1 [Phenformin] (partner 250 µM)
NCI-H520; first compound 0.0002 µM
  relative viability: 0.585
NCI-H520; first compound 0.000632 µM
  relative viability: 0.604
NCI-H520; first compound 0.002 µM
  relative viability: 0.37
NCI-H520; first compound 0.006325 µM
  relative viability: 0.255
NCI-H520; first compound 0.02 µM
  relative viability: 0.148
PC-3 [JPC-3]; first compound 0.0002 µM
  relative viability: 0.484
PC-3 [JPC-3]; first compound 0.000632 µM
  relative viability: 0.48
PC-3 [JPC-3]; first compound 0.002 µM
  relative viability: 0.371
PC-3 [JPC-3]; first compound 0.006325 µM
  relative viability: 0.246
PC-3 [JPC-3]; first compound 0.02 µM
  relative viability: 0.138
NCI-H838; first compound 0.0002 µM
  relative viability: 0.533
NCI-H838; first compound 0.000632 µM
  relative viability: 0.386
NCI-H838; first compound 0.002 µM
  relative viability: 0.198
NCI-H838; first compound 0.006325 µM
  relative viability: 0.161
NCI-H838; first compound 0.02 µM
  relative viability: 0.108
NCI-H650; first compound 0.0002 µM
  relative viability: 0.447
NCI-H650; first compound 0.000632 µM
  relative viability: 0.397
NCI-H650; first compound 0.002 µM
  relative viability: 0.332
NCI-H650; first compound 0.006325 µM
  relative viability: 0.19
NCI-H650; first compound 0.02 µM
  relative viability: 0.21
NCI-H1944; first compound 0.0002 µM
  relative viability: 0.182
NCI-H1944; first compound 0.000632 µM
  relative viability: 0.188
NCI-H1944; first compound 0.002 µM
  relative viability: 0.163
NCI-H1944; first compound 0.006325 µM
  relative viability: 0.133
NCI-H1944; first compound 0.02 µM
  relative viability: 0.0967
NCI-H1651; first compound 0.0002 µM
  relative viability: 0.266
NCI-H1651; first compound 0.000632 µM
  relative viability: 0.342
NCI-H1651; first compound 0.002 µM
  relative viability: 0.194
NCI-H1651; first compound 0.006325 µM
  relative viability: 0.087
NCI-H1651; first compound 0.02 µM
  relative viability: 0.0897
A549; first compound 0.0002 µM
  relative viability: 0.203
A549; first compound 0.000632 µM
  relative viability: 0.0682
A549; first compound 0.002 µM
  relative viability: 0.0555
A549; first compound 0.006325 µM
  relative viability: 0.0466
A549; first compound 0.02 µM
  relative viability: 0.0476
NCI-H1623; first compound 0.0002 µM
  relative viability: 0.54
NCI-H1623; first compound 0.000632 µM
  relative viability: 0.568
NCI-H1623; first compound 0.002 µM
  relative viability: 0.494
NCI-H1623; first compound 0.006325 µM
  relative viability: 0.313
NCI-H1623; first compound 0.02 µM
  relative viability: 0.239
RERF-LC-KJ; first compound 0.0002 µM
  relative viability: 0.454
RERF-LC-KJ; first compound 0.000632 µM
  relative viability: 0.405
RERF-LC-KJ; first compound 0.002 µM
  relative viability: 0.238
RERF-LC-KJ; first compound 0.006325 µM
  relative viability: 0.209
RERF-LC-KJ; first compound 0.02 µM
  relative viability: 0.195

## Cc1sc2c(c1C)C(c1ccc(Cl)cc1)=N[C@@H](CC(=O)OC(C)(C)C)c1nnc(C)n1-2 [JQ1] + CCNC(=O)c1noc(-c2cc(C(C)C)c(O)cc2O)c1-c1ccc(CN2CCOCC2)cc1 [Luminespib] (partner 0.01 µM)
NCI-H520; first compound 0.04 µM
  relative viability: 0.224
NCI-H520; first compound 0.1265 µM
  relative viability: 0.244
NCI-H520; first compound 0.4 µM
  relative viability: 0.218
NCI-H520; first compound 1.265 µM
  relative viability: 0.25
NCI-H520; first compound 4 µM
  relative viability: 0.229
PC-3 [JPC-3]; first compound 0.04 µM
  relative viability: 0.82
PC-3 [JPC-3]; first compound 0.1265 µM
  relative viability: 0.716
PC-3 [JPC-3]; first compound 0.4 µM
  relative viability: 0.614
PC-3 [JPC-3]; first compound 1.265 µM
  relative viability: 0.443
PC-3 [JPC-3]; first compound 4 µM
  relative viability: 0.302
NCI-H838; first compound 0.04 µM
  relative viability: 0.289
NCI-H838; first compound 0.1265 µM
  relative viability: 0.288
NCI-H838; first compound 0.4 µM
  relative viability: 0.222
NCI-H838; first compound 1.265 µM
  relative viability: 0.161
NCI-H838; first compound 4 µM
  relative viability: 0.144
NCI-H650; first compound 0.04 µM
  relative viability: 0.743
NCI-H650; first compound 0.1265 µM
  relative viability: 0.7
NCI-H650; first compound 0.4 µM
  relative viability: 0.546
NCI-H650; first compound 1.265 µM
  relative viability: 0.203
NCI-H650; first compound 4 µM
  relative viability: 0.212
NCI-H1944; first compound 0.04 µM
  relative viability: 0.73
NCI-H1944; first compound 0.1265 µM
  relative viability: 0.632
NCI-H1944; first compound 0.4 µM
  relative viability: 0.451
NCI-H1944; first compound 1.265 µM
  relative viability: 0.37
NCI-H1944; first compound 4 µM
  relative viability: 0.353
NCI-H1651; first compound 0.04 µM
  relative viability: 0.865
NCI-H1651; first compound 0.1265 µM
  relative viability: 0.997
NCI-H1651; first compound 0.4 µM
  relative viability: 0.768
NCI-H1651; first compound 1.265 µM
  relative viability: 0.369
NCI-H1651; first compound 4 µM
  relative viability: 0.375
NCI-H1623; first compound 0.04 µM
  relative viability: 0.543
NCI-H1623; first compound 0.1265 µM
  relative viability: 0.593
NCI-H1623; first compound 0.4 µM
  relative viability: 0.459
NCI-H1623; first compound 1.265 µM
  relative viability: 0.466
NCI-H1623; first compound 4 µM
  relative viability: 0.418
RERF-LC-KJ; first compound 0.04 µM
  relative viability: 1.25
RERF-LC-KJ; first compound 0.1265 µM
  relative viability: 1.07
RERF-LC-KJ; first compound 0.4 µM
  relative viability: 1.04
RERF-LC-KJ; first compound 1.265 µM
  relative viability: 0.668
RERF-LC-KJ; first compound 4 µM
  relative viability: 0.414
